Measurements from patent US20100168103A1, “DIARYL PIPERIDINE COMPOUNDS AS CALCIUM CHANNEL BLOCKERS” (NEUROMED PHARMACEUTICALS LTD., priority 2006, published 2010).
Where two headings read alike, the source gives them in different places.

Target: T1, rat brain N-type calcium channel subunits (α1B+α2δ+β1b cDNA subunits) (Rattus norvegicus, UniProt Q02294)
T1 construct: expressed in transfected cells; host or cells: HEK 293
Assay: N-type calcium channel block, whole cell patch clamp in transfected HEK 293 cells
Assay type: cell-based
Details: holding potential −80 mV to +10 mV
Description: N-type calcium channel blocking activity was assayed in human embryonic kidney cells, HEK 293, stably transfected with the rat brain N-type calcium channel subunits (α1B+α2δ+β1b cDNA subunits). Alternatively, N-type calcium channels (α1B+α2δ+β1b cDNA subunits), L-type channels (α1C+α2δ+β1b cDNA subunits) and P/Q-type channels (α1A+α2δ+β1b cDNA subunits) were transiently expressed in HEK 293 cells. Briefly, cells were cultured in Dulbecco's modified eagle medium (DMEM) supplemented with 10% fetal bovine serum, 200 U/ml penicillin and 0.2 mg/ml streptomycin at 37° C. with 5% CO2. At 85% confluency cells were split with 0.25% trypsin/1 mM EDTA and plated at 10% confluency on glass coverslips. At 12 hours the medium was replaced and the cells transiently transfected using a standard calcium phosphate protocol and the appropriate calcium channel cDNA's. Fresh DMEM was supplied and the cells transferred to 28° C./5% CO2. Cells were incubated for 1 to 2 days prior to whole cell recording.
Whole cell patch clamp experiments were performed using an Axopatch 200B amplifier (Axon Instruments, Burlingame, Calif.) linked to a personal computer equipped with pCLAMP software. The external and internal recording solutions contained, respectively, 5 mM BaCl2, 10 mM MgCl2, 10 mM HEPES, 40 mM TEACl, 10 mM glucose, 87.5 mM CsCl (pH 7.2) and 108 mM CsMS, 4 mM MgCl2, 9 mM EGTA, 9 mM HEPES (pH 7.2). Currents were typically elicited from a holding potential of −80 mV to +10 mV using Clampex software (Axon Instruments). Typically, currents were first elicited with low frequency stimulation (0.067 Hz) and allowed to stabilize prior to application of the compounds. The compounds were then applied during the low frequency pulse trains for two to three minutes to assess tonic block, and subsequently the pulse frequency was increased to 0.2 Hz to assess frequency dependent block. Data were analyzed using Clampfit (Axon Instruments) and SigmaPlot 4.0 (Jandel Scientific).

[1] = low frequency stimulation 0.067 Hz (tonic block), 5 mM BaCl2, read-out: IC50 @ 0.067 Hz
[2] = pulse frequency 0.2 Hz (frequency dependent block), 5 mM BaCl2, read-out: IC50 @ 0.2 Hz

T1 sequence (Q02294 whole entry): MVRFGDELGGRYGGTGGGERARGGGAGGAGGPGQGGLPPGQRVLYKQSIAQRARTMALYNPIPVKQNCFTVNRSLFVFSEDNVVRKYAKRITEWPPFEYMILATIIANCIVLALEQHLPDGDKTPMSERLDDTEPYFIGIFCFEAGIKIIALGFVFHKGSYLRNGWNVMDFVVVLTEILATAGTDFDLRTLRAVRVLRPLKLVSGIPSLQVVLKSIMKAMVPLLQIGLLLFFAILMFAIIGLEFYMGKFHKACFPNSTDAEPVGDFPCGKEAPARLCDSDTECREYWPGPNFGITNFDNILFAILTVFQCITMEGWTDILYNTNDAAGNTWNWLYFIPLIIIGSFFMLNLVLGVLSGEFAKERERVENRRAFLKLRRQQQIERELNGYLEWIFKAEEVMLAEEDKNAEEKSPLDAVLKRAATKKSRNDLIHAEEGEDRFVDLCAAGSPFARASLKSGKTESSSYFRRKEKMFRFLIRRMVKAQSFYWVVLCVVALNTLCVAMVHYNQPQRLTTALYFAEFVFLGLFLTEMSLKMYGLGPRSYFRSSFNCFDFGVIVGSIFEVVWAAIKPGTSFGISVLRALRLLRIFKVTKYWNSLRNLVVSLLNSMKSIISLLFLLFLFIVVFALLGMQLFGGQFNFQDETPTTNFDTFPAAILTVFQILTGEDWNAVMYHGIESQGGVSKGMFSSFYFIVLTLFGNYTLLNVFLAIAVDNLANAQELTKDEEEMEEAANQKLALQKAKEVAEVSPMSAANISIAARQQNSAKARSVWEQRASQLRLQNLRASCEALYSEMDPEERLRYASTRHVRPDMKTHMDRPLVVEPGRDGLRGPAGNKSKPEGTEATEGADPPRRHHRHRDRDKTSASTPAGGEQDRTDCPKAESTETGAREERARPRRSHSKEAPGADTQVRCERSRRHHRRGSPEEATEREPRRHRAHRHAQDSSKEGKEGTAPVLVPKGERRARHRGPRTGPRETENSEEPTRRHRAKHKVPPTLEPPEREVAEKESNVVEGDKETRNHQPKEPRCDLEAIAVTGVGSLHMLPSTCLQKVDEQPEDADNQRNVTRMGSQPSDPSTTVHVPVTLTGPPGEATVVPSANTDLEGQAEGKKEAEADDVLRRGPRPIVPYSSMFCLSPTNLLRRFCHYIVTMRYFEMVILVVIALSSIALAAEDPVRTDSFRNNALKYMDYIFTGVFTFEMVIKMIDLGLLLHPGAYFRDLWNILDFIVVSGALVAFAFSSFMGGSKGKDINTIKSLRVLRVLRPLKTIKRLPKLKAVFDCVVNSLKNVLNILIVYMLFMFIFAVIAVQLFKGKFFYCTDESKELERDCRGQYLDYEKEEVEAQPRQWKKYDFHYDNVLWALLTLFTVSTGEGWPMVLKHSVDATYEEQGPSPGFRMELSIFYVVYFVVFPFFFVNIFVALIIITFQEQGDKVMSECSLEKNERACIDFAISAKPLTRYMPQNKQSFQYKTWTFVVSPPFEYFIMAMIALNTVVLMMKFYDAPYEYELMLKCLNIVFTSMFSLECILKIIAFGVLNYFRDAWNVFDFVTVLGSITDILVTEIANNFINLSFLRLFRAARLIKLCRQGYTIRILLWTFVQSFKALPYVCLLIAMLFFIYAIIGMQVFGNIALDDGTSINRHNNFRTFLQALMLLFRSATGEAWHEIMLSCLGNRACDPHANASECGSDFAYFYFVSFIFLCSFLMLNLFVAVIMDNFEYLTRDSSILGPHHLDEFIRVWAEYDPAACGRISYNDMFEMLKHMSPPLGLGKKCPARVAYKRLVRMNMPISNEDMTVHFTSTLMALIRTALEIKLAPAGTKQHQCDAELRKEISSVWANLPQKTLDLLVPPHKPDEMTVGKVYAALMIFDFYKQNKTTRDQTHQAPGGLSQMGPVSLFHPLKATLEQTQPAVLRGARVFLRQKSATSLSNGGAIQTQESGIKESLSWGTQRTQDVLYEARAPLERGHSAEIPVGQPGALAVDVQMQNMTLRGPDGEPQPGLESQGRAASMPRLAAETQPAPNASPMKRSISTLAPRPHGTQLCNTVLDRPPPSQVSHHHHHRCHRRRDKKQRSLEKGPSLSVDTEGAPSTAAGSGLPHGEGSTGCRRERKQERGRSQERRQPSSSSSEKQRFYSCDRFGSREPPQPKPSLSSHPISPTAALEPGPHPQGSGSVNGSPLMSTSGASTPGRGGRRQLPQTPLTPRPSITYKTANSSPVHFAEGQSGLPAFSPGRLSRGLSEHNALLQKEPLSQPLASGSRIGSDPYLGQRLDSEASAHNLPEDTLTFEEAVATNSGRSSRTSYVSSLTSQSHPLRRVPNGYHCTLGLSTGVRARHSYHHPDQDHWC
T1 sequence (P54290 25-944 partner limits assumed): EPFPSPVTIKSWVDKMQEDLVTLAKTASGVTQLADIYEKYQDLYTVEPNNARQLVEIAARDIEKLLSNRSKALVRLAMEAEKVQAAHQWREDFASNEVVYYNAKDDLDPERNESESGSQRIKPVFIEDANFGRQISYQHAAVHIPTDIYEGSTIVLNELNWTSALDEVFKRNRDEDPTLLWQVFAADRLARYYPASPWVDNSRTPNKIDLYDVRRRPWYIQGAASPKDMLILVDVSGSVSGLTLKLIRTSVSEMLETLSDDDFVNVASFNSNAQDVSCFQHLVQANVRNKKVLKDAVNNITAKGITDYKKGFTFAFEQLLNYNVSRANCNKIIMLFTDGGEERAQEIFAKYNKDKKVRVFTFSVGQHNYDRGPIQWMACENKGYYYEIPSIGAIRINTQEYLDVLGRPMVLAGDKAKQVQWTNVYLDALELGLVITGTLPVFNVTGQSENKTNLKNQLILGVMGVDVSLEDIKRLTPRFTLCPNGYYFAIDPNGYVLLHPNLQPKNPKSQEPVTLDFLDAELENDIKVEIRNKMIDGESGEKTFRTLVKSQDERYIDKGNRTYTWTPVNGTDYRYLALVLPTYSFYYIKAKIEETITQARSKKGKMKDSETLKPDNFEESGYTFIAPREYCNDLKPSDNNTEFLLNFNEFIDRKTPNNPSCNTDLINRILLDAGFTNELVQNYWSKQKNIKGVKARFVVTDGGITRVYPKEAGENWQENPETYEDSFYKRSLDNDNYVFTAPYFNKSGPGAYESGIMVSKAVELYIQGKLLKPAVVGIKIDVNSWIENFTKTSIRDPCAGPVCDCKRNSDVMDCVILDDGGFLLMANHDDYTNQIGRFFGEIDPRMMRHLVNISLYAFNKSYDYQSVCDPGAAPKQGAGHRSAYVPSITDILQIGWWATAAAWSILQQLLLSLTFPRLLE
T1 sequence (P54290 945-1091 partner limits assumed): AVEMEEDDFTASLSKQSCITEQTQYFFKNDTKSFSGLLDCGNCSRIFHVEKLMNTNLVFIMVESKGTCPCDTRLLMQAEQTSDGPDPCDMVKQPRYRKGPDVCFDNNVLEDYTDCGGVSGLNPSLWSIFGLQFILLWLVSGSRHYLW
T1 sequence (P54283 whole entry partner): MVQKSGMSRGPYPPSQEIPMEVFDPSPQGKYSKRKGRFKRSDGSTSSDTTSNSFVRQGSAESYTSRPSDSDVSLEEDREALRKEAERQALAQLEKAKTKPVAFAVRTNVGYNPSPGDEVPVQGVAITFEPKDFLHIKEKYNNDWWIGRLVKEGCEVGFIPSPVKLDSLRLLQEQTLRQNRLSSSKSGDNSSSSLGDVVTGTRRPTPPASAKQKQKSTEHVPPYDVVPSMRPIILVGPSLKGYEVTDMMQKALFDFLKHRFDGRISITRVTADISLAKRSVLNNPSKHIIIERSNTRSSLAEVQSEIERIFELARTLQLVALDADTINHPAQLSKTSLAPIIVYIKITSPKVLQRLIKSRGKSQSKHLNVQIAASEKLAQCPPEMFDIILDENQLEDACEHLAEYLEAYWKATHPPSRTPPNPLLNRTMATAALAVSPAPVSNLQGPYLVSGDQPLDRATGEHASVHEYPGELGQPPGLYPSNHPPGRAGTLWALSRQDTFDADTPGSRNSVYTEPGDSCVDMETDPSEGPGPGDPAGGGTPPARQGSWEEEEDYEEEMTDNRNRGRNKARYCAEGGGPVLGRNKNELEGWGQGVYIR

IC50 [1]	IC50 [2]	Compound
> 2290 nM	1420 nM	CN1CCN(C(=O)C2(c3ccccc3)CCN(C(=O)NC(c3ccccc3)c3ccccc3)CC2)CC1 [Compound 38, N-benzhydryl-4-(4-methylpiperazine-1-carbonyl)-4-phenylpiperidine-1-carboxamide]
> 6450 nM	> 3340 nM	CC(C)(C)N1CCN(C(=O)C2CCN(C(=O)CC(c3ccccc3)c3ccccc3)CC2)CC1 [Compound 78, 1-(4-(4-tert-butylpiperazine-1-carbonyl)piperidin-1-yl)-3,3-diphenylpropan-1-one]
6910 nM	2710 nM	COc1ccccc1C(CC(=O)N1CCC(C(=O)N2CCN(C(C)(C)C)CC2)CC1)c1ccccc1OC [Compound 87, 1-(4-(4-tert-butylpiperazine-1-carbonyl)piperidin-1-yl)-3,3-bis(2-methoxyphenyl)propan-1-one]
880 nM	420 nM	CC1CN(C(c2ccccc2)C2CCN(C(=O)CC(c3ccccc3)c3ccccc3)CC2)CC(C)N1 (stereo not shown) [Compound 55, 1-(4-((3,5-dimethylpiperazin-1-yl)(phenyl)methyl)piperidin-1-yl)-3,3-diphenylpropan-1-one]
5590 nM		O=C(NC(c1cccc(F)c1)c1cccc(F)c1)N1CCC(CN2CCCCC2)CC1 [Compound 60]
3000 nM	1570 nM	COc1ccccc1C(CC(=O)N1CCC(C(c2ccccc2)N2CC(C)NC(C)C2)CC1)c1ccccc1OC (stereo not shown) [Compound 83, 1-(4-((3,5-dimethylpiperazin-1-yl)(phenyl)methyl)piperidin-1-yl)-3,3-bis(2-methoxyphenyl)propan-1-one]
2590 nM	15600 nM	CC(C)(C)N1CCN(C(=O)C2CCN(C(=O)COC(c3ccc(F)cc3)c3ccc(F)cc3)CC2)CC1 [Compound 82, 2-(bis(4-fluorophenyl)methoxy)-1-(4-(4-tert-butylpiperazine-1-carbonyl)piperidin-1-yl)ethanone]
5210 nM	3490 nM	O=C(NC(c1ccccc1)c1ccccc1)N1CCC(CN2CCCCC2)CC1 [Compound 41, N-benzhydryl-4-(piperidin-1-ylmethyl)piperidine-1-carboxamide]
610 nM	310 nM	Cc1ccccc1C(CC(=O)N1CCC(CN2CC(C)NC(C)C2)(c2ccccc2)CC1)c1ccccc1C (stereo not shown) [Compound 31, 1-(4-((3,5-dimethylpiperazin-1-yl)methyl)-4-phenylpiperidin-1-yl)-3,3-di-o-tolylpropan-1-one]
630 nM	450 nM	O=C(COC(c1ccccc1)c1ccccc1)N1CCC(C(c2ccccc2)N2CCCCC2)CC1 (stereo not shown) [Compound 52]
490 nM	320 nM	CC1CN(CC2(c3ccccc3)CCN(C(=O)CC(c3ccccc3)c3ccccc3)CC2)CC(C)N1 (stereo not shown) [Compound 30, 1-(4-((3,5-dimethylpiperazin-1-yl)methyl)-4-phenylpiperidin-1-yl)-3,3-diphenylpropan-1-one]
2300 nM	1500 nM	O=C(CC(c1ccccc1)c1ccccc1)N1CCC(C(c2ccccc2)N2CCCCC2)CC1 (stereo not shown) [Compound 50, 3,3-diphenyl-1-(4-(phenyl(piperidin-1-yl)methyl)piperidin-1-yl)propan-1-one]
6590 nM	2440 nM	Cc1ccccc1C(CC(=O)N1CCC(CN2CCCCC2)CC1)c1ccccc1C [Compound 42, 1-(4-(piperidin-1-ylmethyl)piperidin-1-yl)-3,3-di-o-tolylpropan-1-one]

The remaining lines, values behind:

Compound	IC50 [1]	IC50 [2]
Cc1ccccc1C(CC(=O)N1CCC(C(=O)N2CCNCC2)CC1)c1ccccc1C [Compound 17, 1-(4-(piperazine-1-carbonyl)piperidin-1-yl)-3,3-di-o-tolylpropan-1-one]	3520 nM	1880 nM
CN1CCN(C(=O)C2CCN(C(=O)C[S+]([O-])C(c3ccccc3)c3ccccc3)CC2)CC1 (stereo not shown) [Compound 9, 2-(benzhydrylsulfinyl)-1-(4-(4-methylpiperazine-1-carbonyl)piperidin-1-yl)ethanone]	2410 nM	1800 nM
CN1CCN(CC2CCN(C(=O)CC(c3ccccc3)c3ccccc3)CC2)CC1 [Compound 10, 1-(4-((4-methylpiperazin-1-yl)methyl)piperidin-1-yl)-3,3-diphenylpropanon-1-one]	2520 nM	1720 nM
CN1CCN(C(=O)C2CCN(C(=O)COC(c3ccccc3)c3ccccc3)CC2)CC1 [Compound 8, 2-(benzhydryloxy)-1-(4-(4-methylpiperazine-1-carbonyl)piperidin-1-yl)ethanone]	5110 nM	1730 nM
CC1CN(CC2CCN(C(=O)C[S+]([O-])C(c3ccccc3)c3ccccc3)CC2)CC(C)N1 (stereo not shown) [Compound 19, 2-(benzhydrylsulfinyl)-1-(4-((3,5-dimethylpiperazin-1-yl)methyl)piperidin-1-yl)ethanone]	3750 nM	2400 nM
CC1CN(C(=O)C2CCN(C(=O)CNC(c3ccccc3)c3ccccc3)CC2)CC(C)N1 (stereo not shown) [Compound 20, 2-(benzhydrylamino)-1-(4-(3,5-dimethylpiperazine-1-carbonyl)piperidin-1-yl)ethanone]	8720 nM	3000 nM
CN1CCN(CC2CCN(C(=O)NC(c3ccccc3)c3ccccc3)CC2)CC1 [Compound 11, N-benzhydryl-4-((4-methylpiperazine-1-yl)methyl)piperidine-1-carboxamide]	28400 nM	1500 nM
Cc1ccccc1C(CC(=O)N1CCC(C(=O)N2CC(C)NC(C)C2)CC1)c1ccccc1C (stereo not shown) [Compound 16, 1-(4-(3,5-dimethylpiperazine-1-carbonyl)piperidin-1-yl)-3,3-di-o-tolylpropan-1-one]	5850 nM	3710 nM
CC1CN(C(=O)C2CCN(C(=O)COC(c3ccccc3)c3ccccc3)CC2)CC(C)N1 (stereo not shown) [Compound 21, 2-(benzhydryloxy)-1-(4-(3,5-dimethylpiperazine-1-carbonyl)piperidin-1-yl)ethanone]	1640 nM	990 nM
